{"source": "patent US5631246A", "about": "“Use of PAF” (The Canadian Red Cross Society, priority 1993, dated 1997)", "tested_on": "endothelial cells (ECs)", "assay": "vWf release from ECs exposed directly to PAF or thrombin", "description": "Synthetic PAF (1-O-alkyl-2-acetyl-sn-glyceryl-3-phosphorylcholine; Sigma #P-9525) prepared from bovine heart lecithin (Demopoulos et al. (1979) J. Biol. Chem. 254: 9355-358) was 99% pure by TLC analysis, HPLC analysis indicated this product consisted of 70% C16 and 13% C18 forms of PAF (Mita et al., (1989) Anal. Biochem. 180:131-135). After removal of chloroform, PAF was resuspended in DMEM/F12 culture medium containing 1% Nutridoma-HU (final protein concentration of 40 μM stock solution). After sonication for 3×1 minute periods, the PAF solution was diluted and used immediately.\nMedia with or without thrombin (@5 units/mL) served as positive and negative controls respectively. ECs were incubated for 1, 10, 20 or 30 minutes and 1, 2, 4, 6 and 24 hours in the PAF and thrombin time course studies. The EC conditioned media were recovered, centrifuged to remove any cell debris, and then frozen at -80° C. for a maximum period of 4 weeks prior to analyses. […] Where appropriate ECs were preincubated with BTP-dioxolane which was not cytotoxic to the cells as determined by the dye exclusion test.\nEndothelial cells (ECs) were harvested from human umbilical cord vein as described by Jaffe et al. ((1973) Culture of Human Endothelial Cells Derived from Umbilical Veins: Identification by Morphologic and Immunologic Criteria, J. Clin. Invest. 52:2745-2756) and modified by Hashemi et al. (1990, supra). Endothelial cells were subcultured in 0.2% (w/v) gelatin-coated, 12-well Linbro™ polystyrene, tissue culture plates (Flow Laboratories, Mississauga, Ontario), then plated at a density of 1-2×10^4 /well and grown to confluence.\nThe standard consisted of a pool of plasma from 20 normal individuals previously determined to contain 1 unit of vWf per mL by the procedure of Zimmerman et al. (1977, J. Clin. Invest. 59:984-989). […] For some experiments, the maximum vWf that could be released was determined. Following incubation, the EC conditioned media were recovered and fresh media containing 0.05% (v/v) Tween 20 and 10 μM each of the protease inhibitors D-phenylalanyl-phenylalanyl-arginyl-chloromethyl ketone, D-phenylalanyl-propyl-arginyl-chloromethyl ketone and 1,5-Dansyl-glutamyl-glycyl-arginyl-chloromethyl ketone were added to the EC monolayers of each corresponding well. The cells were freeze-thawed three times and, to assure complete breakdown of the cell membranes as well as the Weibel-Palade bodies, disrupted in a glass homogenizer using a motor-driven teflon pestle. After centrifugation, total vWf concentration was determined in the supernatants.\nIn order to examine the responsiveness of ECs to direct PAF exposure, we incubated the monolayers of ECs with 0-300 pico molar (pM) PAF for a period of 4 hours at 37° C. and determined the amount of vWf released into the EC media. […] To determine the time course of PAF effects on vWf release, 300 pM PAF was incubated with monolayers of ECs for 1, 10, 20 and 30 minutes as well as for 1, 2, 4, 6 and 24 hours. […] As a control, the vWf release from thrombin stimulated ECs was also determined (FIG. 5).", "data": [{"substance": "Thrombin", "values": [{"measurement": "Increase in vWf release (%), BTP-dioxolane absent", "setting": "thrombin 5 U/mL, 4 hours, n=5", "value": "123.5 ± 11.3", "unit": "%"}, {"measurement": "vWf release from ECs (optimal effect)", "setting": "thrombin (5 units/mL), 10 minutes, P<0.001", "value": 368, "unit": "%"}, {"measurement": "vWf release from ECs", "setting": "thrombin (5 units/mL), 30 minutes", "value": 261, "unit": "%"}, {"measurement": "vWf release from ECs", "setting": "thrombin (5 units/mL), 1 hour", "value": 137, "unit": "%"}, {"measurement": "vWf release from ECs", "setting": "thrombin (5 units/mL), 24 hours", "value": 88, "unit": "%"}]}]}
